According to patent US20110046223A1, “TREATMENT OF NEUROFIBROMATOSIS” (RAMOT AT TEL-AVIV UNIVERSITY LTD., priority 2006, published 2011):

Tests used:
phospho-Akt = experiment: steady-state phospho-Akt, Western immunoblotting; assay type: cell-based, human
Description: Unless otherwise indicated, cells were lysed 48 hours after being treated with lysis buffer, as described in Haklai, et al., supra. […] Protein bands were visualized by ECL and quantified by densitometry with Image Master VDS-CL (Amersham) using TINA 2.0 software (Ray Tests). To obtain reliable comparisons between replicated experiments for statistical analysis, a standardization procedure was used, in which the density of each given protein band as recorded with its specific Ab, was normalized. […] The standard average density was defined as 1.0, and each of the individually determined bands was related to this value. […] Actin cytoskeletal elements were labeled with rhodamine-phalloidin, and digital fluorescence images were collected on a Zeiss LSM 510 confocal microscope fitted with fluorescein and rhodamine filters, as described in Gana-Weisz, M., et al., supra.
Next, to determine whether down-regulation of active Ras by FTS was accompanied by inhibition of Ras signaling, the effect of FTS on steady-state levels of phospho-ERK, phospho-Akt, and RalA-GTP as read-outs of the three prominent Ras pathways, Ras/Raf/MEK/ERK, Ras/PI3K/Akt, and Ras/RalGEF/RalA, respectively, was examined. […]

STS26T cells = experiment: cell growth, direct counting of cells, FTS dose-response; assay type: cell-based; settings: Homo sapiens, STS-26T, 72 h, grown three days, FTS 12.5-100 μM, means±SD, n=4, read-out: estimated IC50, decrease in cell number
Description: (§1) The human NF-1 MPNST cell lines ST88-14, T265P21 and 90-8 and the non-NF-1 human MPNST cell line STS26T were obtained from Dr. Nancy Ratner. T265P21, 90-8, and ST88-14 cells were maintained in RPMI/15% fetal calf serum (FCS) medium and STS26T cells were maintained in DMEM/10% FCS, as described in Weisz, B., et al., supra. Cells were plated at a density of 1×10^6 cells per 10-cm plate for biochemical and immunoblotting assays, 2.5×10^3 cells/well in 24-well plates for cell-growth assays, or on glass cover slips (5×10^4 cells per 35-mm dish) for labeling of actin cytoskeletal elements. The cells were incubated for 24 hours, treated with the indicated concentration of FTS or with the vehicle (0.1% DMSO) (control) for the times specified in each of the experiments, and then subjected to the various assays as described below. The effect of FTS on cell growth was estimated by direct counting of cells collected from each well, as described in Weisz, B., et al., supra.
(§2) To determine the effects of the Ras inhibitor FTS on the growth rates of the NF-1 cell lines ST88-14, 90-8, T265P21 and the non-NF-1 STS26T cells, the cells were grown for two days in the absence and in the presence of 50 μM FTS, and then photomicrographed. […] Additionally, cells were grown for three days and then detached, collected, and counted as described in Methods to determine dose-dependent inhibition by FTS.

90-8 cells = experiment: as above; assay type: cell-based; settings: Homo sapiens, 72 h, grown three days, FTS 12.5-100 μM, means±SD, n=4, read-out: estimated IC50, decrease in cell number
Description: as §1, §2

T265P21 cells = experiment: as above; assay type: cell-based; settings: Homo sapiens, 72 h, grown three days, FTS 12.5-100 μM, means±SD, n=4, read-out: estimated IC50, decrease in cell number
Description: as §1, §2

ST88-14 cells = experiment: as above; assay type: cell-based; settings: Homo sapiens, 72 h, grown three days, FTS 12.5-100 μM, means±SD, n=4, read-out: estimated IC50, decrease in cell number
Description: as §1, §2

[1] = tested on: ST88-14, 90-8, T265P21 and non-NF-1 STS26T cells; experiment: cell growth, photomicrographs of control and FTS-treated cells; assay type: cell-based, human; settings: 50 μM FTS, two days
Description: as §1, §2

In the case of `CC(C)=CCC/C(C)=C/CC/C(C)=C/CSc1ccccc1C(=O)O` [FTS, S-farnesylthiosalicylic acid], the “steady-state phospho-Akt” value (phospho-Akt; all NF-1 cell lines) is reported as “significant reduction”, the “increase in phosphor-Akt” value (phospho-Akt; non-NF-1 STS26T cells, steady state) is reported as 10%-20% and the IC50 (STS26T cells) is reported as 53 ± 10 µM. It also gave an IC50 (90-8 cells) of 42 ± 9 µM, an IC50 (T265P21 cells) of 35 ± 7 µM and an IC50 (ST88-14 cells) of 42 ± 13 µM. For the same compound, the cell death [1] was “no significant cell death” and the “cell number (photomicrographs)” value [1] was “drug-induced reduction in cell number”.
